Assay results: patent US10494364B2, “Cathepsin K inhibitors and application thereof” (SUNSHINE LAKE PHARMA CO., LTD., priority 2015, dated 2019)

Assays:
Assay type in all cases: biochemical
[1] = target: human cathepsin S (Homo sapiens, UniProt P25774); assay: Assay of cathepsin S inhibitory activity in vitro; conditions: IC50 against human cathepsin S; substrate Z-VVR-AMC 20 μM; 25° C.; read-out: Cat-S
Procedure: Assay Method of Cathepsin S Inhibitory Activity In Vitro
0.25 ng/L was the final concentration of Cathepsin S in the enzyme reaction, and Z-VVR-AMC with the final concentration of 20 μM was added into the reaction system as substrate, in the reaction system the test compound and enzyme had been incubated at 25° C. for 15 min.

[2] = target: human cathepsin B (Homo sapiens, UniProt P07858); assay: Assay of cathepsin B inhibitory activity in vitro; conditions: IC50 against human cathepsin B; substrate Z-Phe-Arg-AMC 10 μM; 25° C.; read-out: Cat-B
Procedure: Assay Method of Cathepsin B Inhibitory Activity In Vitro
0.01 ng/μL was the final concentration of Cathepsin B in the enzyme reaction, and Z-Phe-Arg-AMC with the final concentration of 10 μM was added into the reaction system as substrate, in the reaction system the test compound and enzyme had been incubated at 25° C. for 15 min.

[3] = target: human cathepsin L (Homo sapiens, UniProt P07711); assay: Assay of cathepsin L inhibitory activity in vitro; conditions: IC50 against human cathepsin L; substrate Z-Phe-Arg-AMC 10 μM; 25° C.; read-out: Cat-L
Procedure: Assay Method of Cathepsin L Inhibitory Activity In Vitro
0.01 ng/μL was the final concentration of Cathepsin L in the enzyme reaction, and Z-Phe-Arg-AMC with the final concentration of 10 μM was added into the reaction system as substrate, in the reaction system the test compound and enzyme had been incubated at 25° C. for 15 min.

[4] = target: T1, human cathepsin K (Homo sapiens, UniProt P43235); assay: Assay of cathepsin K inhibitory activity in vitro; conditions: IC50 against human cathepsin K; substrate Z-Phe-Arg-AMC 10 μM; 25° C.; read-out: Cat-K
T1 sequence (P43235 115-329): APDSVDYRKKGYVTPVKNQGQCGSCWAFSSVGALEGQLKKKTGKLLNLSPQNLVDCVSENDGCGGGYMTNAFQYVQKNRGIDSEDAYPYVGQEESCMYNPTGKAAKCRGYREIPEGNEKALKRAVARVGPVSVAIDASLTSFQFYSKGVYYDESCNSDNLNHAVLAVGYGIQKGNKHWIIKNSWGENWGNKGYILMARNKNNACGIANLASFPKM
Procedure: Assay Method of Cathepsin K Inhibitory Activity In Vitro
Using 45000-fold diluted cathepsin K solution and 10 μM Z-Phe-Arg-AMC as substrate, the test compound and cathepsin K solution were incubated at 25° C. for 15 min in a 15 μL reaction system according to the optimized experimental condition.

Chain of human cathepsin L (P07711 114-333): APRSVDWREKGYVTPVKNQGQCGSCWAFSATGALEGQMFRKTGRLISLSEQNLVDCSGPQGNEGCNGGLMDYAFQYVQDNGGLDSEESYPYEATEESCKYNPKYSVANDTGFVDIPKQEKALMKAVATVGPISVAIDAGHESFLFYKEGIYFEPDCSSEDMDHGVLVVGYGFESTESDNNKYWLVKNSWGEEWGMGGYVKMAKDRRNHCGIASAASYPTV
Chain of human cathepsin S (P25774 115-331): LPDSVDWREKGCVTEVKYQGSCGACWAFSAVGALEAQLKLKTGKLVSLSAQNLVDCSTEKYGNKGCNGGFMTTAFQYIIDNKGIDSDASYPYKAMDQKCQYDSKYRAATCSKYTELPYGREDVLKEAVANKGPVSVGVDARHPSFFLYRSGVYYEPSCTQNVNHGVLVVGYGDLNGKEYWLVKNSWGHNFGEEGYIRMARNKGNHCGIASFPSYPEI

Row | IC50 [1] | IC50 [2] | IC50 [3] | IC50 [4] | Structure (SMILES)
1 | > 10000 nM | 7970 nM | > 10000 nM | 2.35 nM | COc1cc(-c2ccc3cc(C(=O)NC4(C(=O)NC5(C#N)CC5)CCC(F)(F)CC4)oc3c2)ccc1OCC(C)(C)O [Example 44, N-(1-((1-cyanocyclopropyl)carbamoyl)-4,4-difluorocyclohexyl)-6-(4-(2-hydroxy-2-methylpropoxy)-3-methoxyphenyl)benzofuran-2-carboxamide]
2 | > 10000 nM | > 10000 nM | > 10000 nM | 1.01 nM | N#CC1(NC(=O)C2(NC(=O)c3cc4ccc(-c5ccc(S(=O)(=O)N6CCOCC6)cc5)cc4o3)CCC(F)(F)CC2)CC1 [Example 47, N-(1-((1-cyanocyclopropyl)carbamoyl)-4,4-difluorocyclohexyl)-6-(4-(morpholinosulfonyl)phenyl)benzofuran-2-carboxamide]
3 | 416 nM | > 10000 nM | > 10000 nM | 1.3 nM | N#CC1(NC(=O)C2(NC(=O)c3cc4ccc(-c5csc(-n6cncn6)n5)cc4o3)CCC(F)(F)CC2)CC1 [Example 57, 6-(2-(1H-1,2,4-triazol-1-yl)thiazol-4-yl)-N-(1-((1-cyanocyclopropyl)carbamoyl)-4,4-difluorocyclohexyl)benzofuran-2-carboxamide]
4 | > 10000 nM | 423 nM | > 10000 nM | 1.26 nM | N#CC1(NC(=O)C2(NC(=O)c3cc4ccc(-c5ccc(-n6cncn6)cc5)cc4o3)CCCCCC2)CC1 [Example 61]
5 | 4000 nM | 880 nM | > 10000 nM | 1.37 nM | CS(=O)(=O)c1ccc(-c2ccc3cc(C(=O)NC4(C(=O)NC5(C#N)CC5)CCCCC4)oc3c2)cc1 [Example 62]
6 | > 10000 nM | 1200 nM | > 10000 nM | 1.6 nM | N#CC1(NC(=O)C2(NC(=O)c3cc4ccc(-c5csc(N6CCCC6=O)n5)cc4o3)CCCCC2)CC1 [Example 63]
7 | 637 nM | 373 nM | > 10000 nM | 0.88 nM | CS(=O)(=O)c1cccc(-c2ccc3cc(C(=O)NC4(C(=O)NC5(C#N)CC5)CCCCC4)oc3c2)c1 [Example 64]
8 | > 10000 nM | 697 nM | > 10000 nM | 1.3 nM | N#CC1(NC(=O)C2(NC(=O)c3cc4ccc(-c5csc(N6CCNC6=O)n5)cc4o3)CCCCC2)CC1 [Example 65]
9 | 969 nM | 540 nM | > 10000 nM | 0.81 nM | CS(=O)(=O)c1nc(-c2ccc3cc(C(=O)NC4(C(=O)NC5(C#N)CC5)CCCCC4)oc3c2)cs1 [Example 66]
10 | 990 nM | 540 nM | > 10000 nM | 0.64 nM | N#CC1(NC(=O)C2(NC(=O)c3cc4ccc(-c5csc(N6CCS(=O)(=O)CC6)n5)cc4o3)CCCCC2)CC1 [Example 67]
11 | 4080 nM | 360 nM | > 10000 nM | 0.79 nM | N#CC1(NC(=O)C2(NC(=O)c3cc4ccc(-c5csc(N6CCOC6=O)n5)cc4o3)CCCCC2)CC1 [Example 68]
12 | 5060 nM | 530 nM | > 10000 nM | 8.6 nM | CS(=O)(=O)c1ccc(-c2ccc3cc(C(=O)NC4(C(=O)NC5(C#N)CC5)CCCC4)oc3c2)cc1 [Example 70]
13 | > 10000 nM | 290 nM | > 10000 nM | 2.1 nM | COC1(c2ccc(-c3ccc4cc(C(=O)NC5(C(=O)NC6(C#N)CC6)CCCCC5)oc4c3)cc2)COC1 [Example 71]
14 | > 10000 nM | 727 nM | > 10000 nM | 0.5 nM | N#CC1(NC(=O)C2(NC(=O)c3cc4ccc(-c5ccc(C6(O)COC6)cc5)cc4o3)CCCCC2)CC1 [Example 72]
15 | > 10000 nM | 1120 nM | > 10000 nM | 3.04 nM | N#CC1(NC(=O)C2(NC(=O)c3cc4ccc(-c5ccc(C6(F)COC6)cc5)cc4o3)CCCCC2)CC1 [Example 73]
16 | 4100 nM | 490 nM | > 10000 nM | 1.83 nM | N#CC1(NC(=O)C2(NC(=O)c3cc4ccc(-c5ccc(C6(O)CCOCC6)cc5)cc4o3)CCCCC2)CC1 [Example 75]
17 | 340 nM | 120 nM | > 10000 nM | 0.55 nM | N#CC1(NC(=O)C2(NC(=O)c3cc4ccc(-c5ccc(C6(O)CCS(=O)(=O)CC6)cc5)cc4o3)CCCCC2)CC1 [Example 76]

Row | IC50 [1] | IC50 [2] | IC50 [3] | IC50 [4] | Structure (SMILES)
18 | 1050 nM | 178 nM | ≥ 10000 nM | 0.67 nM | N#CC1(NC(=O)C2(NC(=O)c3cc4ccc(-c5ccc(C6(O)COC6)nc5)cc4o3)CCCCC2)CC1 [Example 77]
19 | 2070 nM | 282 nM | ≥ 10000 nM | 0.95 nM | N#CC1(NC(=O)C2(NC(=O)c3cc4ccc(-c5csc(C6(O)COC6)n5)cc4o3)CCCCC2)CC1 [Example 78]
20 | 740 nM | 330 nM | 7100 nM | 0.72 nM | N#CC1(NC(=O)C2(NC(=O)c3cc4ccc(-c5ccc(C6(O)COC6)cc5)cc4o3)CCCCCC2)CC1 [Example 79]
21 | 1600 nM | 2400 nM | > 10000 nM | 1.34 nM | CS(=O)(=O)c1ccc(-c2ccc3cc(C(=O)NC4(C(=O)NC5(C#N)CC5)CCCCCC4)oc3c2)cc1 [Example 81]
22 | 1500 nM | 200 nM | > 10000 nM | 2.7 nM | CS(=O)(=O)c1ccc(-c2ccc3cc(C(=O)NC4(C(=O)NC5(C#N)CC5)CCCCC4)oc3n2)cc1 [Example 82]
23 | > 10000 nM | 1600 nM | > 10000 nM | 2.2 nM | N#CC1(NC(=O)C2(NC(=O)c3cc4ccc(-c5ccc(C6(F)CCS(=O)(=O)CC6)cc5)cc4o3)CCCCC2)CC1 [Example 83]
24 | 9700 nM | 860 nM | > 10000 nM | 1.3 nM | N#CC1(NC(=O)C2(NC(=O)c3cc4ccc(-c5ccc(-n6cncn6)cc5)cc4o3)CCCCC2)CC1 [Example 84]
25 | 1500 nM | 2200 nM | > 10000 nM | 1.26 nM | N#CC1(NC(=O)C2(NC(=O)c3cc4ccc(-c5ccc(-n6cn[nH]c6=O)cc5)cc4o3)CCC(F)(F)CC2)CC1 [Example 85]
26 | 4700 nM | 6800 nM | > 10000 nM | 1.1 nM | N#CC1(NC(=O)C2(NC(=O)c3cc4ccc(-c5ccc(C6CCS(=O)(=O)CC6)cc5)cc4o3)CCC(F)(F)CC2)CC1 [Example 86]
27 | 2900 nM | 800 nM | > 10000 nM | 5.4 nM | N#CC1(NC(=O)C2(NC(=O)c3cc4ccc(-c5ccc(N6CCNC6=O)cc5)cc4o3)CCC(F)(F)CC2)CC1 [Example 88]
28 | 170 nM | 1200 nM | > 10000 nM | 1.5 nM | N#CC1(NC(=O)C2(NC(=O)c3cc4ccc(-c5ccc(C(O)C(N)=O)cc5)cc4o3)CCC(F)(F)CC2)CC1 (stereo not shown) [Example 90]
29 | > 10000 nM | 2500 nM | > 10000 nM | 1.3 nM | N#CC1(NC(=O)C2(NC(=O)c3cc4ccc(-c5ccc6c(c5)OCO6)cc4o3)CCC(F)(F)CC2)CC1 [Example 91]
30 | 2300 nM | 6400 nM | > 10000 nM | 1.4 nM | N#CC1(NC(=O)C2(NC(=O)c3cc4ccc(-c5ccc(C(=O)N6CCOCC6)cc5)cc4o3)CCC(F)(F)CC2)CC1 [Example 92]
31 | > 10000 nM | 4300 nM | > 10000 nM | 2.96 nM | CC1(COc2ccc(-c3ccc4cc(C(=O)NC5(C(=O)NC6(C#N)CC6)CCC(F)(F)CC5)oc4c3)cc2)COC1 [Example 93]
32 | 6500 nM | 4000 nM | > 10000 nM | 2.4 nM | COc1cc(-c2ccc3cc(C(=O)NC4(C(=O)NC5(C#N)CC5)CCC(F)(F)CC4)oc3c2)ccc1OC(F)F [Example 94]
33 | 2150 nM | 711 nM | > 10000 nM | 0.53 nM | CS(=O)(=O)Nc1ccc(-c2ccc3cc(C(=O)NC4(C(=O)NC5(C#N)CC5)CCC(F)(F)CC4)oc3c2)cc1 [Example 96]
34 | 2290 nM | 355 nM | > 10000 nM | 1.37 nM | COc1cc(-c2ccc3cc(C(=O)NC4(C(=O)NC5(C#N)CC5)CCC(F)(F)CC4)oc3c2)ccc1S(C)(=O)=O [Example 97]
